Measurements as given in the NIST ThermoML archive (doi:10.1016/j.jct.2006.09.010).
Numbers after ± are expanded uncertainties.

Settings: Liquid

With `FC(F)C(F)(F)F` [pentafluoroethane] the “vapor or sublimation pressure” value (313.15 K) was 2008 ± 38 kPa, the “vapor or sublimation pressure” value (323.15 K) was 2535 ± 48 kPa and the “vapor or sublimation pressure” value (333.15 K) was 3171 ± 59 kPa.
